Laboratory results: US20050152995A1, “Methods and compositions for promoting axon regeneration and cell replacement therapy” (priority 2003, published 2005)
Like-named read-outs stand apart in the source and are kept apart here.

Legend:
[1] = tested on: severed optic nerve (astrocytes, RGC axons); format: in vivo, mouse; conditions: for axonal regeneration after optic nerve crush: n=5
Protocol: Optic nerve crush was performed in Bcl-2tg (14) and wild-type littermate mouse pups, prior to the knowledge of genotypes. Regeneration was assessed and corroborated by three labeling methods: anterograde axon tracing, immunofluorescent staining, and retrograde labeling of RGCs that regenerated their axons. […].
To assess the functional significance of astrocyte maturation in optic nerve regeneration, we treated adult (2-3-month-old) wild-type and Bcl-2tg mice with astrotoxin (L-alpha-aminoadipate), which selectively kills astrocytes and has minimal effects on surrounding neurons and myelin (25, 26). Immediately after optic nerve crush, gelform soaked in L-alpha-aminoadipate solution (10 mg/ml in PBS, Sigma) or PBS was placed against the crush site. […] Regenerating axons extended exclusively into the GFAP-negative area and stopped abruptly where GFAP staining reappeared (FIG. 4B, D).
To quantify axonal regeneration, we used electron microscopy to examine optic nerve sections of adult wild-type and Bcl-2tg mice treated with astrotoxin or PBS. Degenerating myelin and tissue debris were found in sections of all groups (FIG. 4I, J). In treated Bcl-2tg mice (n=5), a large number of regenerating axons were seen 0.5 mm posterior to the crush site, an area devoid of astrocytes and their cellular processes (FIG. 4J). […] In contrast, in other three groups, few axons were present in optic nerve sections if they were collected at 0.5 mm posterior to the crush (n=3/group). Regenerating axons were 20-fold more abundant in astrotoxin-treated Bcl-2tg mice than in PBS-treated wild-type mice (P<0.001) (FIG. 4K). Thus, elimination of mature astrocytes promoted robust optic nerve regeneration in adult Bcl-2tg mice.

[2] = tested on: severed optic nerve (astrocytes, RGC axons); format: in vivo, mouse
Protocol: To evaluate the effects of lithium used simultaneously with astrotoxin in optic nerve regeneration in adult mice, an on optic nerve crush was performed in adult mice. Immediately after the optic nerve crush, a piece of gelform soaked in astrotoxin solution or PBS was placed against the crush site. Thereafter, mice were divided into two groups: one group received a diet containing lithium, and the other received a control diet.
Mice were sacrificed on day 8 after the nerve crush to examine axon regeneration.
Surgical procedure: All experimental procedures and use of animals were approved by Animal Care and Use Committee in the Schepens Eye Research Institute and adhered to the ARVO statement for the Use of Animals in Ophthalmic and Vision Research. Adult C57BL/6J mice were anesthetized with a mixture of ketamine (12.5 mg/ml, Sigma) and xylazine (2.5 mg/ml, Sigma) (5 μ/g). Optic nerve was exposed intraorbitally and crushed for 3 seconds using fine forceps. Immediately after nerve crush, a piece of gelfoam soaked with L-α-aminoadipate (10 mg/ml; Sigma) was placed against the crushed site. Gelfoam soaked with phosphate buffered saline (PBS) was used as control. To ensure continued delivery of astrotoxin, the gelfoam was replaced every 3 days post-injury (DPI). Following recovery from the optic nerve surgery, mice were divided into two groups: one group received a diet supplemented with lithium ([…], Bio-Serv), and the other group received a control diet. Mice were sacrificed on 8 DPI, and the mouse serum was collected to determine serum lithium concentration (Medtox Laboratories Inc).
(§1) Retinal histology and immunohistochemistry: The eyeball and optic nerve were dissected out, fixed in 4% paraformaldehyde for 1 hr, cryoprotected and embedded in O.T.C. The tissues were then cryosectioned at 12 μm and subjected to cresyl violet staining or immunohistochemistry. For immunofluorescence labeling, tissue sections were reacted with Cy-3 conjugated mouse anti-GFAP (1:1000, Sigma) or rabbit anti-GAP-43 (1:200, Chemicon). The signal of GAP-43 was then visualized by FITC-conjugated goat anti-rabbit IgG (1:250, Vector Lab.). To detect the expression of Bcl-2 protein, the eyeballs were dissected out and embedded without fixation. Before immunostaining, retinal sections were fixed with acetone that was stored at −20° C. for 15 min and incubated with Bcl-2 antibody (1:50, Transduction lab) followed by reaction with biotinylated anti-mouse IgG (1:100, Vector Lab.) and DTAF-conjugated Streptavidin (1:100, Jackson Lab). The sections were then counter-stained with DAPI (1:150, Sigma) to reveal cell nuclei before they were mounted with Vectashield (Vector Lab) and examined under epifluorescence microscope.
Quantitation of Axon Regeneration: Following staining with anti-GAP-43 antibody, the longest distance of axon regeneration axon was measured from the crushed site in optic nerve sections. At least 4 sections were sampled from each optic nerve, and the measured lengths of regenerating axons were averaged. Statistical significance was determined by One-way ANOVA and Tukey-Kramer multiple comparison tests.

[3] = mice on lithium-containing diet, n=9, 8 DPI
Protocol: To determine whether lithium induces the expression of Bcl-2 in adult retinal neurons in vivo, we fed mice with food chow containing lithium.
Adult C57BL/6J mice were anesthetized with a mixture of ketamine (12.5 mg/ml, Sigma) and xylazine (2.5 mg/ml, Sigma) (5 μ/g). […] Mice were sacrificed on 8 DPI, and the mouse serum was collected to determine serum lithium concentration (Medtox Laboratories Inc).

[4] = tested on: retinal ganglion cells (RGCs)
Protocol: The neuroprotective effect of lithium-containing diet on the survival of fluorogold (FG)-labeled RGCs was assessed.
After sacrificing, whole-mount retinas were prepared. At least 12 non-overlapping areas of the retina were selected randomly and photographed. Surviving RGCs that were labeled with FluoroGold were counted, and the density of survival RGCs was determined.

Bcl-2 = tested on: Bcl-2
Description: as §1

[5] = tested on: inner limiting membrane (ILM) of the retina; test: Retinal transplantation into collagenase-treated wild-type retinas; format: in vivo, mouse; conditions: collagenase 100 U/ml, n=4
Protocol: To distinguish implanted cells and their cellular processes from the host environment, we used retinas from mice expressing an enhanced green fluorescent protein (EGFP) transgene driven by a chicken b-actin promoter and cytomegalovirus enhancer (24′). Suspensions of retinal cells from postnatal day 0 (P0) EGFP mice were injected into the subretinal space of adult wild-type or GFAP−/−Vim−/− hosts. […] To confirm that this failure of neural integration into the wild-type hosts was not a result of the site of transplantation, we injected cells into the vitreous cavity (n=4) (FIG. 6B). […] Few neurons migrated and extended neurites into the damaged retinal area but not beyond (FIG. 1B).
To exclude the possibility that this change in the property of the ILM in GFAP−/−Vim−/− mice affected the fate of retinal transplants, we treated wild-type retinas with collagenase (100 U/ml) to break down the ILM (n=4). By comparing with untreated wild-type hosts (n=3), we found no difference in graft cell migration and neurite extension into the retinas of collagenase treated and untreated mice (data not shown).

[6] = adult wild-type mice, day 8 after nerve crush

N[C@@H](CCCC(=O)O)C(=O)O [astrotoxin, L-alpha-aminoadipate]
abundance of regenerating axons relative to PBS-treated wild-type mice ([1]; adult Bcl-2tg mice, electron microscopy, 0.5 mm posterior to the crush, P<0.001): 20 fold | axonal regeneration after optic nerve crush ([1]; adult Bcl-2tg mice): robust regeneration | GFAP immunofluorescence staining in the optic nerve ([1]; adult wild-type and Bcl-2tg mice, 10 mg/ml in PBS on gelform at crush site): created a GFAP-negative area | effect on myelin and neuronal processes ([1]; adult wild-type and Bcl-2tg mice, immunofluorescence staining): no effect | axonal regeneration after optic nerve crush ([1]; adult wild-type mice): a few axons sprouted past the lesion site | GFAP expression along the crushed optic nerve [2, 6]: a region devoid of immunorective astrocytes (GFAP-negative) was generated | axon regeneration (GAP-43 labeling) [2, 6]: no sign of regeneration | length of regenerating axons extending from the crushed site ([2]; anti-GAP-43 immunostaining, day 8 after nerve crush): 50 μm

O=C([O-])[O-].[Li+].[Li+] [lithium, lithium carbonate]
serum concentration of lithium [3]: 0.80±0.15 mEq/l | number of surviving RGCs ([4]; following optic nerve crush, not significant vs control (P>0.05)): 404 /mm^2 | density of FG-labeled RGCs ([4]; normal retina): 2134 /mm^2 | Bcl-2 mRNA in retina (Bcl-2; RT-PCR, lithium-containing diet vs regular diet): strong induction | Bcl-2 protein expression in retina (Bcl-2; immunostaining, lithium-containing diet): detected in the ganglion cell layer | GFAP expression along the crushed optic nerve ([2]; mouse, in vivo): detected along the entire nerve | axon regeneration (GAP-43 labeling) ([2]; mouse, in vivo): no sign of regeneration | length of regenerating axons extending from the crushed site ([2]; mouse, in vivo): 80 μm

collagenase
graft cell migration and neurite extension into the retina vs untreated hosts [5]: no difference
